# Experimental data published in US20210196724A1, “BIARYL COMPOSITIONS AND METHODS FOR MODULATING A KINASE CASCADE” (Athenex, Inc., priority 2016, published 2021).
# Where “and” joins values, the source holds several entries; their conditions need not be identical. Equal values may be shown once.
# Assays:
# GL261 cells = assay: MTT cell growth inhibition (GI50), GL261; type: cell-based, murine; conditions: 3 days
# Method: (§1) The drug concentration required to block net cell growth by 50% relative to a control sample is measured as the GI50. The GI50s for several of the compounds of the application were assayed as described.
# (§2) MTT assay: U87 and GL261 cells were seeded in 96-well plate (6×10^3 cells in 100 μl of DMEM+10% FBS media per well) and incubated overnight at 37° C. with 5% CO2. All test compounds were diluted (10 point 2-fold serial dilution) in a separate 96-well plate to yield 10× of final concentrations (0.5-256 nM). A volume of 11 μl of 10× dilutions was added to appropriate wells (n=3). To value (reflecting the starting number of cells upon drug treatment) was determined by following steps as described below. After 3 days incubation at 37° C. with 5% CO2, 10 μl of MTT solution (5 mg/ml in PBS) was added to each well and plates were incubated at 37° C. for 3 h to allow MTT to form formazan crystals by reacting with metabolically active cells. 100 μl of 20% SDS was added to each well and plates were incubated overnight at 37° C. with 5% CO2. Afterward, OD570 was measured using microplate reader. The cell growth percentage of control was calculated according to percentage of control=(T−T0)/(C−T0)×100% or OD value of the test well exposure to test drug—OD value at time zero/(OD of the control well without drug treatment−OD value at time zero)×100%. Growth inhibition curves and GI50 were determined using GraphPad Prism 5 software.
# U87 cells = assay: MTT cell growth inhibition (GI50), U87; type: cell-based, human; conditions: 3 days
# Method: as §1, §2
# HT-29 = assay: Cell growth inhibition (GI50), HT-29; type: cell-based; conditions: Homo sapiens, HT-29, HT-29
# Method: as §1
# [1] = Pharmacokinetic properties after IV and PO administration; type: in vivo; conditions: for AUCIV (dose-normalized) / t0.5 / C0 / clearance / Vd: IV Administration (5 mg/kg); for F (%) = 100 × AUCpo/AUCIV: PO 20 mg/kg vs IV 5 mg/kg; for AUCPO (dose-normalized) / Cmax: PO Administration (20 mg/kg); for C0 / clearance / Vd / Cmax: in vivo; for Vd: read-out: Vss
# [2] = Brain permeability (brain:plasma ratio); type: in vivo; conditions: read-out: Brain:Plasma (B:P) Average; for Kp at 0.25 h: time point 0.25 h; for Kp at 0.5 h: time point 0.5 h; for Kp at 1 h: time point 1 h; for Kp at 2 h: time point 2 h; for Kp at 4 h: time point 4 h; for Kp at 6 h: time point 6 h; for Kp at 8 h: time point 8 h
# Method: Brain permeability can be measured by various methods known in the art. For example, brain permeability can be measured by calculating the ratio between the concentration of a compound of the application in the brain and the concentration of the compound in the plasma (i.e., BP ratio). In one aspect, a compound of the application has a B:P ratio of at least 1.0, 1.1, 1.2, 1.3, 1.4, 1.5, 1.6, 1.7, 1.8, 1.9, or 2.0 at 1 hour after administration of the compound to a subject. In one aspect, a compound of the application has a B:P ratio of at least 1.5, 1.6, 1.7, 1.8, 1.9, or 2.0 at 1 hour after administration of the compound to a subject. In one aspect, a compound of the application has a B:P ratio of at least 1.4, 1.5, 1.6, 1.7, 1.8, 1.9, 2.0, 2.1, 2.2, or 2.3 at 2 hours after administration of the compound to a subject. In one aspect, a compound of the application has a B:P ratio of at least 1.9, 2.0, 2.1, 2.2, or 2.3 at 2 hours after administration of the compound to a subject. In one aspect, a compound of the application has a B:P ratio of at least 1.7, 1.8, 1.9, 2.0, 2.1, 2.2, 2.3, 2.4, or 2.5 at 4 hours after administration of the compound to a subject. In one aspect, a compound of the application has a B:P ratio of at least 2.2, 2.3, 2.4, or 2.5 at 4 hours after administration of the compound to a subject.
# [3] = test system: GL261 glioblastoma cells injected intra-cranially; assay: GL261 murine model of glioblastoma (intra-cranial), survival; type: in vivo, C57BL/6 mice
# Method: The anti-tumor activity of Compound 121, as a single agent, was studied in the GL261 murine model of human glioblastoma. Murine GL261 glioblastoma cells were injected intra-cranially into syngeneic, immune-competent hosts (C57BL/6). In order for oral therapeutics to be effective, it is required that the therapeutic be able to cross the blood-brain barrier in order to achieve sufficient levels in the brain to exert an anti-tumor effect. Survival was the major endpoint for the study. The mice either succumbed to the tumor or were euthanized based on severity of tumor-dependent morbidity. Mice that achieved long-term survival (>80 days) were re-challenged with a sub-cutaneous injection of GL261 cells to assess the development of a durable immune response to GL261. Mice that underwent the re-challenge phase were not treated with Compound 121.
# GL261 cells (1×10^5 cells) were implanted into the brain of a C57BL/6 host using stereotactice injection. Compound 121 was dosed orally once per day at 1 mg/kg (N=10) for 45 days beginning 3 days post-tumor cell implantation. Compound Y was dosed orally once per day at 5 mg/kg (N=10) for 45 days beginning 3 days post-tumor implantation. A vehicle was administered to a control group of mice (N=10) per the same schedule.
# Mice were monitored for signs of tumor dependent morbidity, including head tilt, hunching, ataxia, and limb weakness. Mice were euthanized when cumulative signs of high tumor burden were evident.
GI50 (U87 cells),"GI50 (U87 cells; Homo sapiens, U-87 MG, 72 h) [µM]",SMILES,GI50 (GL261 cells),"GI50 (GL261 cells; Mus musculus, GL261, 72 h) [µM]",further results
0.151 µM,0.203,C[C@H]1CN(c2ccc(-c3ccc(CC(=O)NCc4cccc(F)c4)nc3)cc2)CCO1 [Compound 100],0.127 µM,0.129,–
–,0.096,C[C@@H]1CN(c2ccc(-c3ccc(CC(=O)NCc4cccc(F)c4)nc3)cc2)CCO1 [Compound 101],–,0.076,–
0.037 µM,0.025,C[C@H]1COCCN1c1ccc(-c2ccc(CC(=O)NCc3cccc(F)c3)nc2)cc1 [Compound 102],0.042 µM,0.024,–
–,0.146,C[C@@H]1COCCN1c1ccc(-c2ccc(CC(=O)NCc3cccc(F)c3)nc2)cc1 [Compound 103],–,0.113,–
0.0122 µM,0.0108,Cc1cc(N2CCOC[C@H]2C)ccc1-c1ccc(CC(=O)NCc2ccccc2)nc1 [Compound 105],0.0069 µM,0.0057,–
0.0234 µM,0.0221,Cc1cc(N2CCOC[C@@H]2C)ccc1-c1ccc(CC(=O)N[C@@H]2CCc3ccccc32)nc1 [Compound 107],0.0283 µM,0.0194,–
–,0.0066,C[C@H]1COCCN1c1ccc(-c2ccc(CC(=O)NCc3ccccc3)nc2)cc1 [Compound 108],–,0.0068,GI50 (HT-29): 0.003 µM
–,> 1.02,Cc1cc(CC(=O)NCc2cccc(F)c2)ncc1-c1ccc(N2CCOC[C@@H]2C)cc1 [Compound 109],–,> 1.02,–
–,> 1.02,Cc1cc(CC(=O)NCc2cccc(F)c2)ncc1-c1ccc(N2CCOC[C@H]2C)cc1 [Compound 110],–,> 1.02,–
0.224 µM,0.239,Cc1cc(CC(=O)NCc2ccccc2)ncc1-c1ccc(N2CCOC[C@@H]2C)cc1 [Compound 111],0.17 µM,0.195,–
0.401 µM,0.352,Cc1cc(CC(=O)NCc2ccccc2)ncc1-c1ccc(N2CCOC[C@H]2C)cc1 [Compound 112],0.24 µM,0.21,–
–,–,Cc1nc(CC(=O)NCc2cccc(F)c2)ccc1-c1ccc(N2CCOC[C@@H]2C)cc1 [Compound 113],0.12 µM and 0.099 µM,0.18,GI50 (HT-29): 0.046 µM
–,–,Cc1nc(CC(=O)NCc2cccc(F)c2)ccc1-c1ccc(N2CCOC[C@H]2C)cc1 [Compound 114],0.5 µM,0.34,–
0.015 µM and 0.0156 µM,0.03,Cc1nc(CC(=O)NCc2ccccc2)ccc1-c1ccc(N2CCOC[C@@H]2C)cc1 [Compound 115],–,–,–
0.115 µM and 0.098 µM,0.12,Cc1nc(CC(=O)NCc2ccccc2)ccc1-c1ccc(N2CCOC[C@H]2C)cc1 [Compound 116],0.09 µM and 0.074 µM,0.11,–
–,> 0.729,Cc1cc(N2CCOC[C@@H]2C)ccc1-c1ccc(CC(=O)NCc2ccncc2)nc1 [Compound 117],0.387 µM,0.488,–
–,0.621,Cc1cc(N2CCOC[C@@H]2C)ccc1-c1ccc(CC(=O)NCc2cccnc2)nc1 [Compound 118],–,0.262,–
0.233 µM and 0.224 µM,0.129,Cc1cc(N2CCOC[C@@H]2C)ccc1-c1ccc(CC(=O)NCc2ccccn2)nc1 [Compound 119],0.216 µM and 0.139 µM,0.164,–
0.0223 µM and 0.0184 µM and 0.0177 µM and 0.0186 µM,0.0202,Cc1cc(N2CCOC[C@@H]2C)ccc1-c1ccc(CC(=O)NCc2ccccc2F)nc1 [Compound 120],0.0136 µM and 0.0189 µM and 0.0158 µM and 0.0134 µM and 0.0107 µM,0.017,AUCIV (dose-normalized) [1]: 188 kg·ng·h/mL/mg; t0.5 [1]: 0.663 h; F (%) = 100 × AUCpo/AUCIV [1]: 40.9%; AUCPO (dose-normalized) [1]: 76.8 kg·ng·h/mL/mg; C0 [1]: 1590 ng/mL; clearance [1]: 88.7 mL/min/kg; Vd [1]: 3.63 L/kg; Cmax [1]: 798 ng/mL; Kp at 0.25 h [2]: 1.24; Kp at 0.5 h [2]: 1.39; Kp at 1 h [2]: 1.72; Kp at 2 h [2]: 1.38; Kp at 4 h [2]: 1.04; Kp at 6 h [2]: 0.82; Kp at 8 h [2]: 1.12
0.0173 µM,0.0247,Cc1cc(N2CCOC[C@@H]2C)ccc1-c1ccc(CC(=O)NCc2ccc(C#N)cc2)nc1 [Compound 122],0.0189 µM,0.0138,–
–,0.473,Cc1cc(N2CCOC[C@@H]2C)ccc1-c1ccc(CC(=O)NCc2ccccc2C#N)nc1 [Compound 123],–,0.456,–
–,0.86,Cc1cc(N2CCOC[C@@H]2C)ccc1-c1ccc(CC(=O)NCc2cccc(C#N)c2)nc1 [Compound 124],–,1.03,–
0.23 µM,0.195,COc1ccccc1CNC(=O)Cc1ccc(-c2ccc(N3CCOC[C@@H]3C)cc2C)cn1 [Compound 125],0.158 µM,0.14,–
0.046 µM,0.0419,COc1cc(N2CCOC[C@@H]2C)ccc1-c1ccc(CC(=O)NCc2ccccc2)nc1 [Compound 126],0.0386 µM,0.0479,–
–,0.269,COc1cc(N2CCOC[C@@H]2C)ccc1-c1ccc(CC(=O)NCc2ccccc2F)nc1 [Compound 127],–,0.207,–
–,0.377,COc1cc(N2CCOC[C@@H]2C)ccc1-c1ccc(CC(=O)NCc2cccc(F)c2)nc1 [Compound 128],–,0.303,–
0.0381 µM,0.036,COc1cc(N2CCOC[C@@H]2C)ccc1-c1ccc(CC(=O)NCc2ccc(F)cc2)nc1 [Compound 129],0.0303 µM,0.0517,–
0.135 µM,0.104,COc1cc(N2CCOC[C@@H]2C)ccc1-c1ccc(CC(=O)NCc2ccc(C#N)cc2)nc1 [Compound 130],0.107 µM,0.111,–
–,–,"O=C(Cc1ccc(-c2ccc(N3CCOCC3)cc2)cn1)NCc1cccc(F)c1 [Compound Y, reference compound]",–,–,"AUCIV (dose-normalized) [1]: 553 kg·ng·h/mL/mg; t0.5 [1]: 0.364 h; F (%) = 100 × AUCpo/AUCIV [1]: 39.3%; AUCPO (dose-normalized) [1]: 217 kg·ng·h/mL/mg; C0 [1]: 4620 ng/mL; clearance [1]: 30.2 mL/min/kg; Vd [1]: 0.962 L/kg; Cmax [1]: 2590 ng/mL; Kp at 0.25 h [2]: 1.56; Kp at 0.5 h [2]: 1.46; Kp at 1 h [2]: 1.33; Kp at 2 h [2]: 0.712; Kp at 4 h [2]: 0.834; Kp at 6 h [2]: 0.633; Kp at 8 h [2]: 0.685; Activity in GL261 model ([3]; dosed once daily at >20 mg/kg): demonstrated activity; Effect on survival ([3]; orally once per day at 5 mg/kg for 45 days): only a marginal, insignificant effect on survival"
